# B1: DJ-1: wild type DJ-1 overexpressed by stable transfection with pIRES2-acGFP1 plasmid; GenBank AB073864 (protein, listed as Homo sapiens)
# chain: MASKRALVILAKGAEEMETVIPVDVMRRAGIKVTVAGLAGKDPVQCSRDVVICPDASLEDAKKEGPYDVVVLPGGNLGAQNLSESAAVKEILKEQENRKGLIAAICAGPTALLAHEIGCGSKVTTHPLAKDKMMNGGHYTYSENRVEKDGLILTSRGPGTSFEFALAIVEALNGKEVAAQVKAPLVLKD
# Tests used:
# [1] = system: SH-SY5Y human neuroblastoma cells; assay: MTT cell viability assay; assay type: cell-based
# Experimental: (§1) Cellular transfection and treatment: SH-SY5Y human neuroblastoma cells, obtained from the ATCC (Rockville, USA), were stably transfected with pIRES2-acGFP1 plasmid (BD biosciences, Clontech) containing wild type DJ-1. Decreased expression of DJ-1 was achieved by stable transfection with pSilencer2.1-U6 plasmid (Ambion) containing siRNA for DJ-1. As controls, naïve neuroblastoma cells were used as well as cells stably transfected with the same vectors. Transfections were performed using the lipofectamine 2000 reagent (Invitrogen). Stable transfections were achieved by geneticin treatment and were verified by measuring DJ-1 mRNA and protein levels using real-time PCR and Western blotting.
# Cell viability: Cell viability was determined by the MTT (3-(4,5-dimethylthiazole-2-yl)-2,5-diphenyltetrazolium bromide, Sigma) reduction assay. Viability after exposure to increasing dopamine levels was analyzed by adding MIT solution to each well followed by incubation at 37° C. for 3 hours. Absorbance was determined at 564 nm in a microplate reader. Cell viability was evaluated in triplicate for each treatment. All experiments were repeated at least 3 times.
# [2] = system: SH-SY5Y human neuroblastoma cells; assay: Intracellular reactive oxygen species (DCF assay); assay type: cell-based
# Experimental: as §1
# Measurement of intracellular reactive oxygen species (ROS): The generation of ROS, after exposure to increasing dopamine concentrations, was measured using H2DCFDA (Sigma), which is incorporated into the cells and cleaved into fluorescent DCF in the presence of ROS. 10 μM H2DCFDA was added to the cell suspension, and the cells were incubated in the dark at 37° C. for 10 minutes. DCF fluorescence was measured by FLUOstar spectrofluorometer microplate reader at 520 nm. The generation of ROS was quantitatively assayed by the increase in DCF fluorescence and expressed as percentage of control. Each experiment was repeated at least 3 times in triplicates.
# DJ-1 mRNA = assay: Real time quantitative PCR of DJ-1 mRNA; assay type: cell-based, human
# Experimental: Cellular transfection and treatment: SH-SY5Y human neuroblastoma cells, obtained from the ATCC (Rockville, USA), were stably transfected with pIRES2-acGFP1 plasmid (BD biosciences, Clontech) containing wild type DJ-1. […] As controls, naïve neuroblastoma cells were used as well as cells stably transfected with the same vectors. Transfections were performed using the lipofectamine 2000 reagent (Invitrogen). Stable transfections were achieved by geneticin treatment and were verified by measuring DJ-1 mRNA and protein levels using real-time PCR and Western blotting. […] RNA isolation and Real time quantitative PCR: Total RNA was isolated from cultured neuroblastoma cells using a commercial reagent TriReagentTM (Sigma). The amount and quality of RNA was determined spectrophotometrically using the ND-1000 spectrophotometer (NanoDrop). First-strand cDNA synthesis was carried out from […] of the total RNA using random primer (Invitrogen) and RT-superscript II (Invitrogen) reverse transcriptase. Real-time quantitative reverse transcription polymerase chain reaction (PCR) of the desired genes was performed in an ABI Prism 7700 sequence detection system (Applied biosystems) using Sybr green PCR master mix (Applied biosystems) and the following primers: GAPDH (used as 'housekeeping' gene) sense: […] NO: 7), GAPDH antisense: […] NO: 8); DJ-1 sense: […] ID NO: 9) DJ-1 antisense: […] ID NO:10) VMAT2 sense: […] ID NO: 11) VMAT2 antisense: […] NO: 12). Real time quantitative PCR (qPCR) was performed using AbsoluteTM QPCR SYBR® Green ROX Mix, in triplicates. Quantitative calculations of the gene of interest versus GAPDH were done using the ddCT method.
# VMAT2 mRNA = assay: Real time quantitative PCR of VMAT2 mRNA; assay type: cell-based, human
# Experimental: Cellular transfection and treatment: SH-SY5Y human neuroblastoma cells, obtained from the ATCC (Rockville, USA), were stably transfected with pIRES2-acGFP1 plasmid (BD biosciences, Clontech) containing wild type DJ-1. […] As controls, naïve neuroblastoma cells were used as well as cells stably transfected with the same vectors. Transfections were performed using the lipofectamine 2000 reagent (Invitrogen). Stable transfections were achieved by geneticin treatment and were verified by measuring DJ-1 mRNA and protein levels using real-time PCR and Western blotting. […] RNA isolation and Real time quantitative PCR: Total RNA was isolated from cultured neuroblastoma cells using a commercial reagent TriReagentTM (Sigma). The amount and quality of RNA was determined spectrophotometrically using the ND-1000 spectrophotometer (NanoDrop). […] Real-time quantitative reverse transcription polymerase chain reaction (PCR) of the desired genes was performed in an ABI Prism 7700 sequence detection system (Applied biosystems) using Sybr green PCR master mix (Applied biosystems) and the following primers: GAPDH (used as 'housekeeping' gene) sense: […] […] Real time quantitative PCR (qPCR) was performed using AbsoluteTM QPCR SYBR® Green ROX Mix, in triplicates. Quantitative calculations of the gene of interest versus GAPDH were done using the ddCT method.
# DJ-1 protein = assay: Western blotting of DJ-1 protein in neuroblastoma cells; assay type: cell-based, human
# Experimental: as §1, with “Decreased expression of DJ-1 was achieved by stable transfection with pSilencer2.1-U6 plasmid (Ambion) containing siRNA for DJ-1.” left out, “blotting. […] 8, 1987-1995 (2006)].” for “blotting.”
# ERK 1,2 = system: ERK 1,2
# Experimental: Cells were treated with dopamine (0-500 uM; Sigma. Israel), N-acetylcysteine (NAC 5 mM; Sigma), and PD-98059 (30 uM; Calbiochem, Rosh Haayin, Israel).
# Protein extraction and Western blotting: Protein extraction and Western blotting were done as previously described [Lev, N., et al Antioxid. redox signal. 8, 1987-1995 (2006)]. The membranes were probed with rabbit anti-DJ 1 antibody (1:1000; Chemicon Laboratories), mouse anti-VMAT2 (1:100; Chemicon Laboratories), and rabbit anti emerin (1:5000; Santa Cruz), followed by horseradish peroxidase conjugated secondary antibody (1:10000; Sigma) and developed with the Super Signal West Pico Chemiluminescent substrate (Pierce Biotechnology). Densitometry of the specific protein bands was preformed by VersaDoc® imaging system and Quantity One® software (BioRad).
# Immunocytochemistry: Cells were fixed with 4% paraformaldehyde and permeabilized with 0.5% Triton X-100 and were then incubated in a blocking solution followed by overnight incubation with rabbit anti-VMAT2 (1:100; Chemicon Laboratories), at 4° C. followed by incubation with alexa-568 conjugated goat anti rabbit antibodies (1:1000; Molecular probes). Nuclei were counterstained by 4′,6-Diamidino-2-phenylindole dihydrochloride (DAPI, Sigma).
# VMAT2 promotor = conditions: after exposure to 50 μM dopamine
# Experimental: Chromatin immunoprecipitation: ChIP assays using cultured neuroblastoma cells were performed following Upstate instructions. After protein-DNA cross-linking by paraformaldehyde, cells were harvested and the pellets were resuspended in lysis-buffer and sonicated on ice (5 sets of 15-s pulse at 40% maximal power). After pre-clearing with Protein G/A-agarose, aliquots were incubated with DJ-1 antibodies or non-specific antibodies (as control) overnight at 4° C. with rotation. Immunopercipitated DNA was used as templates for the following primers, designed for the human VMAT promotor: sense: [sequence]
# striatum = assay: In vivo 6-hydroxydopamine hemiparkinsonian mouse model, striatal Western blotting; conditions: mice
# Experimental: In vivo 6-hydroxydopamine hemiparkinsonian mouse model: Eight-week-old male C57BL/6 mice (Harlan, Israel; 22-28 g) were used for 6-hydroxydopamine hemiparkinsonian mouse model experiments. All animals were housed in standard conditions, in a constant temperature (22±1° C.), relative humidity (30%), 12-h light: 12-h dark cycle, with free access to food and water. Surgical procedures were performed under the supervision of the Animal Care Committee at the Rabin Medical Center and at Tel Aviv University, Tel Aviv, Israel. Mice received a unilateral, right intrastriatal injection of […] 6-hydroxydopamine hydrobromide (Sigma, Israel) using a stereotaxic surgical procedure. Injections were targeted to the central striatum using the following coordinates: 0.5 mm anterior to bregma, 2.0 mm lateral to bregma, and 2.5 mm deep to the skull surface. Treatments were administered in a volume of 2.0 μL at a rate of 0.5 μL/min. 24 hours after 6-hydroxydopamine lesioning, striatal tissue was collected from both the injected and intact sides for DJ-1, VMAT2 and TH analysis. For analysis of acute 6-hydroxydopamine effects on phosphokinases striatal tissue was excised after 30 and 45 minutes of 6-hydroxydopamine injection.
# VMAT2 = biological target: T1, VMAT2 (Homo sapiens, UniProt Q05940); assay: KCl-induced [3H]dopamine release; assay type: cell-based
# T1 construct: endogenous in cells; host or cells: SH-SY5Y human neuroblastoma cells (naive, stably transfected with wild type DJ-1, or with siRNA for DJ-1)
# Experimental: KCl-induced dopamine release: Cells were plated on poly-D-lysin-coated 24-well plates. Cells were rinsed with assay buffer (containing Tris 4 mM, HEPES 6.25 mM, NaCl 120 mM, KCl 5 mM, CaCl2 1.2 mM, MgSO4 1.2 mM, D-glucose 5.6 mM and ascorbic acid 0.5 mM) and were then incubated with 0.5 uCi/ml [3H]Dopamine (Amersham Biosciences) for 20 minutes at 37° C. To measure stimulation-induced [3H]Dopamine release, [3H]Dopamine-loaded cells were rinsed extensively with ice cold buffer, and were treated with 60 mM KCl for 20 minutes at 37° C. and extracellular [3H]Dopamine was measured. Inhibition of VMAT2 was done using dihydrotetrabenazine (0-1 mM). All samples were analyzed with Packard liquid scintillation counter. Experiments were conducted in triplicates and repeated three times.
# [3] = system: tyrosine hydroxylase (TH); assay: Tyrosine hydroxylase mRNA (real time PCR) and ChIP of TH promotor; assay type: cell-based, human; conditions: DJ-1 overexpressing cells, GAPDH reference
# Experimental: RNA isolation and Real time quantitative PCR: Total RNA was isolated from cultured neuroblastoma cells using a commercial reagent TriReagent™ (Sigma). The amount and quality of RNA was determined spectrophotometrically using the ND-1000 spectrophotometer (NanoDrop). First-strand cDNA synthesis was carried out from […] of the total RNA using random primer (Invitrogen) and RT-superscript II (Invitrogen) reverse transcriptase. Real-time quantitative reverse transcription polymerase chain reaction (PCR) of the desired genes was performed in an ABI Prism 7700 sequence detection system (Applied biosystems) using Sybr green PCR master mix (Applied biosystems) and the following primers: GAPDH (used as ‘housekeeping’ gene) sense: CGACAGTCAGCCGCATCTT (SEQ ID NO: 7), GAPDH antisense: […] (SEQ ID NO: 8); DJ-1 sense: […], (SEQ ID NO: 9) DJ-1 antisense: […], (SEQ ID NO:10) VMAT2 sense: […], (SEQ ID NO: 11) VMAT2 antisense: […] (SEQ ID NO: 12). Real time quantitative PCR (qPCR) was performed using Absolute™ QPCR SYBR® Green ROX Mix, in triplicates. Quantitative calculations of the gene of interest versus GAPDH were done using the ddCT method.
# [4] = PD98059 30 uM, inhibition of ERK1,2 phosphorylation
# T1 sequence (Q05940 whole entry): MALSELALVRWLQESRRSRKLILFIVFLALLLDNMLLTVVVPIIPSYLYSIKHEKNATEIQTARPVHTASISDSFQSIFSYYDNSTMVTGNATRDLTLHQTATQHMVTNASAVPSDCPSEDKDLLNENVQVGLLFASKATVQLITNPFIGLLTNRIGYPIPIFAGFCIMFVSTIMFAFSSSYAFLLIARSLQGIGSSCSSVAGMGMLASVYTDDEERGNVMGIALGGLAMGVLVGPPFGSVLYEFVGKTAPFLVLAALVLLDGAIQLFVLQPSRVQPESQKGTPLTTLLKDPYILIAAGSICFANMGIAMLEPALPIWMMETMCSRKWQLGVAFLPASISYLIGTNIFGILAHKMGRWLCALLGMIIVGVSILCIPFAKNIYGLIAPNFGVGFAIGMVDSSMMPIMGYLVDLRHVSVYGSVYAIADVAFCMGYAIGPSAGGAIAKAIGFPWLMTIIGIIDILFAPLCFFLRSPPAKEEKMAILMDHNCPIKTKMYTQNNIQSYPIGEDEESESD
molecule,measurement,setting,value
NCCc1ccc(O)c(O)c1 [dopamine],Cell viability (MTT) after dopamine exposure,"[1]; dopamine 0-500 uM, 24 hours, neuroblastoma cells",dose dependent cell death
same,Intracellular ROS (DCF assay) after dopamine exposure,"[2]; increasing dopamine concentrations, neuroblastoma cells",increased intracellular ROS
same,Increase in DJ-1 mRNA,"DJ-1 mRNA; 50 μM dopamine, within 1 hour, naïve neuroblastoma cells",2.5 fold
same,VMAT2 mRNA elevation of basal level,"VMAT2 mRNA; 50 μM dopamine, after 7 hours, naïve neuroblastoma cells",60 fold
same,DJ-1 protein after dopamine exposure (Western blot),DJ-1 protein; naïve neuroblastoma cells,Increased DJ-1 protein
same,"Time to phosphorylation of ERK 1,2 after dopamine exposure","ERK 1,2; naive neuroblastoma, Western blotting and immunocytochemistry",20 to 60 min
same,Phosphorylation of ERK 1 and 2 after dopamine exposure,"ERK 1,2; naïve neuroblastoma cells",rapid phosphorylation
same,VMAT2 promotor precipitated by anti-DJ-1 antibodies (ChIP),VMAT2 promotor,higher amounts of VMAT2 promotor were precipitated
"CC(=O)N[C@@H](CS)C(=O)O [NAC, N-acetylcysteine]",Effect on dopamine-induced DJ-1 mRNA upregulation,"DJ-1 mRNA; pre-treatment with NAC 5 mM, naïve neuroblastoma",abolished DJ-1 mRNA upregulation
"Br.NCCc1cc(O)c(O)cc1O [6-hydroxydopamine, 6-hydroxydopamine hydrobromide]","ERK1,2 phosphorylation in striatum","striatum; acute exposure, intrastriatal injection, 30 and 45 minutes","increased phosphorylation of ERK1, 2"
same,DJ-1 and VMAT-2 protein expression in lesioned vs unlesioned striatum,"striatum; unilateral intrastriatal injection, 24 hours",increased expression of DJ-1 and of VMAT-2 proteins
COc1cc2c(cc1OC)[C@H]1C[C@@H](O)[C@H](CC(C)C)CN1CC2 [dihydrotetrabenazine],KCl induced dopamine release,"VMAT2; dihydrotetrabenazine 0-1 mM, 60 mM KCl 20 minutes",abolished
COc1cccc(-c2cc(=O)c3ccccc3o2)c1N [PD98059],Effect on dopamine-induced DJ-1 mRNA upregulation,DJ-1 mRNA; [4],inhibited DJ-1 mRNA upregulation
same,Effect on dopamine-induced DJ-1 protein upregulation (Western blot),DJ-1 protein; [4],abolished DJ-1 protein upregulation
B1,Protection against rotenone and 6-hydroxydopamine,[1]; DJ-1 overexpressing neuroblastoma cells,protects against dopaminergic toxins
same,Vulnerability to dopamine toxicity (MTT viability),"[1]; dopamine 0-500 uM, 24 hours, transfected SH-SY5Y cells",conferred resistance to dopamine
same,Dopamine-induced intracellular ROS (DCF assay),[2]; transfected SH-SY5Y cells vs naïve neuroblastoma,decreased intracellular ROS
same,DJ-1 mRNA and protein levels in overexpressing cells,DJ-1 mRNA; stable transfection with wild type DJ-1,over 3 fold
same,VMAT2 expression level compared to control (mRNA),VMAT2 mRNA; stably transfected SH-SY5Y cells,over 500 fold
same,KCl-induced dopamine release from synaptic vesicles compared to naïve neuroblastoma cells,VMAT2; transfected SH-SY5Y cells,released more dopamine
same,TH mRNA levels (real time PCR),[3],upregulation of TH mRNA

# — patent publication US8378070B2, “Peptides for the regulation of neurotransmitter sequestration and release” (Ramot at Tel-Aviv University Ltd., priority 2007, dated 2013)
